Measured values from ChEMBL document CHEMBL4138289, “Structurally Diverse Cytotoxic Dimeric Chalcones from Oxytropis chiliophylla” (J Nat Prod, 2018).

Assays:
PC-3 [1] = experiment: Cytotoxicity against human PC3 cells at 25 uM after 48 hrs by MTT assay relative to control; assay type: functional
PC-3 [2] = experiment: Cytotoxicity against human PC3 cells at 5 uM after 48 hrs by MTT assay relative to control; assay type: functional
PC-3 [3] = experiment: Growth inhibition of human PC3 cells after 48 hrs by MTT assay; assay type: functional, cell-based; details: PC-3, 48 h

Row | Compound | Activity (PC-3 [1]) | Activity (PC-3 [2]) | IC50 (PC-3 [3])
1 | O=C(c1ccc(O)cc1O)[C@@H]1[C@H](C(=O)c2ccc(O)cc2O)[C@@H](c2ccccc2)[C@H]1c1ccccc1 | 78.8% | 27.1% | 
2 | O=C(c1ccc(O)cc1O)[C@@H]1[C@@H](C(=O)c2ccc(O)cc2O)[C@H](c2ccccc2)[C@H]1c1ccccc1 | 96.3% | 41.2% | 3.8 µM
3 | O=C(c1ccc(O)cc1O)[C@@H]1Cc2ccccc2[C@H](C(=O)c2ccc(O)cc2O)[C@@H]1c1ccccc1 | 73.4% | 22.3% | 
4 | O=C(c1ccc(O)cc1O)[C@H]1Cc2ccccc2[C@@H](C(=O)c2ccc(O)cc2O)[C@H]1c1ccccc1 | 86.3% | 46.1% | 
5 | O=C(c1ccc(O)cc1O)[C@H]1[C@H](c2ccccc2)[C@@H](C(=O)c2ccc(O)cc2O)[C@@H]1c1ccccc1 | 76.7% | 12.8% | 
6 | O=C(c1ccc(O)cc1O)[C@H]1[C@H](C(=O)c2ccc(O)cc2O)[C@H](c2ccccc2)[C@@H]1c1ccccc1 | 87.6% | 30.7% | 
7 | O=C(c1ccc(O)cc1O)[C@@H]1[C@@H](C(=O)c2ccc(O)cc2O)[C@H](c2ccccc2)[C@@H]1c1ccccc1 | 75.5% | 29% | 
8 | O=C(c1ccc(O)cc1O)[C@H]1[C@H](C(=O)c2ccc(O)cc2O)[C@@H](c2ccccc2)[C@@H]1c1ccccc1 | 97.6% | 49.7% | 3.5 µM
9 | O=C(c1ccc(O)cc1O)[C@H]1[C@H](c2ccccc2)[C@H](C(=O)c2ccc(O)cc2O)[C@H]1c1ccccc1 | 88% | 29.6% | 
10 | O=C(c1ccc(O)cc1O)[C@H]1[C@H](c2ccccc2)[C@H](C(=O)c2ccc(O)cc2O)[C@@H]1c1ccccc1 | 57.9% | 12.3% | 
11 | O=C(/C=C/c1ccccc1)c1ccc(O)cc1O [2',4'-DIHYDROXYCHALCONE] | 66.2% | 16.6% | 
